Data reported in patent publication US20040204481A1, “Activation of natural killer cells by adenosine A3 receptor agonists” (priority 2001, published 2004).
Entries after “also recorded” stand apart in the source; their conditions may differ.

Tests used:
[1] = system: human peripheral blood NK cells; test: 4 h 51Cr-release NK cytotoxicity assay, in vitro preincubation with agonist, K562 leukemia cells as targets; type: cell-based; conditions: for activity of natural killer cells following preincubation: 10 nM Cl-IB-MECA, 18 hours preincubation, K562 targets, E:T ratio 1:50, FIG. 1
Experimental: Murine splenocytes were derived from spleens of ICR mice and human mononuclear cells were separated by Ficoll-Hypaque gradient from heparinized blood of healthy normal volunteers.
(§1) The effect of Cl-IB-MECA on the activity of human peripheral blood NK cells was assayed by a standard 4 h ^51Cr-release assay using K562 leukemia cells as targets. Splenocytes or human mononuclear cells were cultured at a concentration of 5×10^5 cells/well in 96 well round bottom plates, and used as the effector (E) cells. The cells were preincubated with 10 nM Cl-IB-MECA for 18 hours, then the agonist was washed out from the wells and the cells were re-suspended in RPMI containing 5% FCS. K562 cells were used as the targets (T) and were labeled with 100 μci of Na2[^51Cr]O4 at 37° C., for 1 hr.
(§2) After extensive washing to remove the excess ^51Cr, target cells (1×10^4) were re-suspended in RPMI and mixed with the effector cells at an E:T ratio of 1:50 in a total volume of 200 μl (triplicate assays). After 4 hours of incubation at 37° C. in 5% CO2, plates were centrifuged, and the supernatants were counted in a gamma counter (LKB).
(§3) NK cytotoxicity was calculated using the following equation (CPM: counts per minute): [formula]
(§4) CPM sample, CPM spontaneous and CPM maximal were determined by measuring the CPM of the supernatants of the target cells in the presence of […], the assay medium or in the presence of 1% triton, respectively. It should be noted that spontaneous release was below 10% of the maximal release throughout this experiment.

NK cells = test: NK activity (51Cr assay) of splenocytes from B-16 melanoma bearing mice treated orally; type: in vivo, C57B1/6J mice; conditions: for NK activity of splenocytes versus vehicle control group: 15 days, B-16 melanoma inoculated mice, FIG. 3
Experimental: In a further study C57B1/6J mice were used as the model mice which will develop metastatic lung foci after 15 days. The C57B1/6J mice were inoculated intravenously with B-16 melanoma cells (2.5×10^5) and treated daily orally with 6 or 9 μg/kg body weight of Cl-IB-MECA (starting one day after tumor inoculation). After 15 days, the mice were sacrificed and spleens were removed.
Splenocytes were separated and tested for NK activity using the ^51Cr assay as described above. […] The splenocytes derived from the group treated with 6 μg/kg body weight of Cl-IB-MECA were designated as “activated” cells and those derived from the control group were designated as “non-activated” splenocytes.

murine NK cells = test: NK activity (51Cr assay) of splenocytes from ICR mice after oral administration; type: in vivo; conditions: FIG. 2; for NK activity of splenocytes derived from treated mice: 6 μg/kg orally for two consecutive days
Experimental: as §1, §2, §3, §4
ICR mice were orally administered for two consecutive days with 6 μg/kg body weight of Cl-IB-MECA. After 4, 11 and 18 days, mice were sacrificed and spleens were removed. Splenocytes were separated and tested for NK activity using the ^51Cr assay as described above.

B-16 melanoma cells = test: Adoptive transfer of splenocytes to melanoma bearing mice, count of lung melanoma foci; type: in vivo; conditions: splenocytes from 6 μg/kg Cl-IB-MECA treated mice engrafted 4 days after B-16 inoculation; day 15; versus non-activated splenocytes or control; FIG. 4
Excerpt: In another experiment, the capability of the “activated” splenocytes to act in vivo against melanoma cells was examined. The “non-activated” and “activated” splenocytes were engrafted to mice that were inoculated 4 days earlier with B-16 melanoma cells (2.5×10^5). As the control served mice that were inoculated with the B-16 melanoma cells however not engrafted with splenocytes. The mice were sacrificed on day 15 and their lungs were removed. The number of lung melanoma foci was counted, the results for which are depicted in FIG. 4.

CNC(=O)[C@H]1O[C@@H](n2cnc3c(NCc4cccc(I)c4)nc(Cl)nc32)[C@H](O)[C@@H]1O [Cl-IB-MECA, 2-chloro-N^6-(3-iodobenzyl)-adenosine-5′-N-methyl-uronamide]
activity of natural killer cells following preincubation [1]: potentiation | activity of natural killer cells following preincubation ([1]; listed as CI-IB-MECA): significant dose dependent increase | NK activity of splenocytes versus vehicle control group (NK cells; 6 μg/kg daily orally): marked increase | NK activity of splenocytes versus vehicle control group (NK cells; 9 μg/kg daily orally): marked increase | NK cell activity in splenocytes derived from treated melanoma bearing mice (NK cells; FIG. 3 legend, dose not stated there): increased NK cell activity | NK activity of splenocytes derived from treated mice (murine NK cells; after 4 days): marked increase | NK activity of splenocytes derived from treated mice (murine NK cells; after 11 days): high activity was still observed | NK activity of splenocytes derived from treated mice (murine NK cells; following 18 days): only slight increase | time of maximal activation of murine NK cells (murine NK cells; oral administration): 4 days | development of lung metastatic foci (B-16 melanoma cells): decreased number of lung foci

O=C(Cc1ccccc1)Nc1nc2ccc(Cl)cc2c2nc(-c3ccco3)nn12 [MRS-1220, 9-chloro-2-(2-furanyl)-5-[(phenylacetyl)amino] [1,2,4,] -triazolo[1,5-c] quinazoline]
effect of the A3 receptor antagonist on the stimulatory effect of Cl-IB-MECA on NK activity ([1]; MRS-1220 introduced with Cl-IB-MECA, FIG. 1): reversed the stimulatory effect; also recorded: abolished the stimulatory effect
